Test results: patent publication US20250352554A1 (Neurelis, Inc., priority 2024, published 2025)
Read-outs that look alike come from different tables or passages of the source.

Conditions: saturated solution

Measured: Appearance

Cc1cc2c(s1)Nc1ccccc1N=C2N1CCN(C)CC1 [olanzapine, 2-methyl-4-(4-methyl-1-piperazinyl)-10H-thieno[2,3-b][1,5]benzodiazepine]
Clear amber solution: 20% Dimethylacetamide/80% PEG 200 | 40% Dimethylacetamide/60% PEG 200 | 100% PEG 200
